These are literature values, as cited in patent US20110287437A1, “ASSAYS TO PREDICT CARDIOTOXICITY” (priority 2010, published 2011).

For data set [1] the following is noted: assessment from public literature and internal data; training set N=19.
For data set [2] the following is noted: treatment of patients; prescribing information.

As for `COc1cc2c(Nc3ccc(Br)cc3F)ncnc2cc1OCC1CCN(C)CC1` [Zactima], in data set [1], the Cardiotoxicity result is recorded as “Positive”.

Regarding `COc1cc2ncnc(Nc3ccc(F)c(Cl)c3)c2cc1OCCCN1CCOCC1` [Iressa], in data set [1], the Cardiotoxicity entry is “Negative”. As to `CCN(CC)CCNC(=O)c1c(C)[nH]c(/C=C2\C(=O)Nc3ccc(F)cc32)c1C` [Sutent, sunitinib], in data set [2], the “Cardiotoxicity / adverse cardiac effects reported” value is given as “mentioned in the prescribing information”. In data set [1], the Cardiotoxicity entry is recorded as “Positive”.

`C#Cc1cccc(Nc2ncnc3cc(OCCOC)c(OCCOC)cc23)c1` [Tarceva]: the Cardiotoxicity result in data set [1] is listed as “Negative”. As to `CO[C@H]1C[C@@H]2CC[C@@H](C)[C@@](O)(O2)C(=O)C(=O)N2CCCC[C@H]2C(=O)O[C@H]([C@H](C)C[C@@H]2CC[C@@H](OCCO)[C@H](OC)C2)CC(=O)[C@H](C)/C=C(\C)[C@@H](O)[C@@H](OC)C(=O)[C@H](C)C[C@H](C)/C=C/C=C/C=C/1C` [Everolimus], in data set [1], the Cardiotoxicity entry is “Positive”. As to `COc1ccc2c(O[C@@H]3C[C@H]4C(=O)N[C@]5(C(=O)O)C[C@H]5/C=C\CCCCC[C@H](NC(=O)OC5CCCC5)C(=O)N4C3)cc(-c3csc(NC(C)C)n3)nc2c1` [BILN 2061], the Cardiotoxicity entry in data set [1] was “Positive”. With `COc1cccc2c1C(=O)c1c(O)c3c(c(O)c1C2=O)C[C@@](O)(C(=O)CO)C[C@@H]3O[C@H]1C[C@H](N)[C@H](O)[C@H](C)O1` [Doxorubicin], the Cardiotoxicity entry in data set [1] is “Positive”. Consider `CS(=O)(=O)CCNCc1ccc(-c2ccc3ncnc(Nc4ccc(OCc5cccc(F)c5)c(Cl)c4)c3c2)o1` [Tykerb], for which the Cardiotoxicity entry in data set [1] is given as “Negative”. With `CNC(=O)c1cc(Oc2ccc(NC(=O)Nc3ccc(Cl)c(C(F)(F)F)c3)cc2)ccn1` [Nexavar, sorafenib], the “Cardiotoxicity / adverse cardiac effects reported” value in data set [2] is reported as “mentioned in the prescribing information”. In data set [1], the Cardiotoxicity entry was “Positive”. For the compound bevacizumab: bevacizumab (Avastin), in data set [2], the “Cardiotoxicity / adverse cardiac effects reported” value is reported as “mentioned in the prescribing information”. Regarding `Cc1nc(Nc2ncc(C(=O)Nc3c(C)cccc3Cl)s2)cc(N2CCN(CCO)CC2)n1` [Sprycel, dasatinib], the “Cardiotoxicity / adverse cardiac effects reported” value in data set [2] was “mentioned in the prescribing information”. For the same compound, in data set [1], the Cardiotoxicity result is on record as “Positive”. On to `Cc1cn(-c2cc(NC(=O)c3ccc(C)c(Nc4nccc(-c5cccnc5)n4)c3)cc(C(F)(F)F)c2)cn1` [Nilotinib], for which the Cardiotoxicity result in data set [1] is recorded as “Positive”.
